Three compounds from US7825256B2, “Inducible nitric oxide synthase dimerization inhibitors” (Kalypsys, Inc., priority 2004, dated 2010) can be followed below.

For one assay, the target named is T1, heNOS (Homo sapiens, UniProt P29474).
T1 construct: expressed in transfected cells; host or cells: HEK293
T1 sequence (P29474 2-1203 limits assumed): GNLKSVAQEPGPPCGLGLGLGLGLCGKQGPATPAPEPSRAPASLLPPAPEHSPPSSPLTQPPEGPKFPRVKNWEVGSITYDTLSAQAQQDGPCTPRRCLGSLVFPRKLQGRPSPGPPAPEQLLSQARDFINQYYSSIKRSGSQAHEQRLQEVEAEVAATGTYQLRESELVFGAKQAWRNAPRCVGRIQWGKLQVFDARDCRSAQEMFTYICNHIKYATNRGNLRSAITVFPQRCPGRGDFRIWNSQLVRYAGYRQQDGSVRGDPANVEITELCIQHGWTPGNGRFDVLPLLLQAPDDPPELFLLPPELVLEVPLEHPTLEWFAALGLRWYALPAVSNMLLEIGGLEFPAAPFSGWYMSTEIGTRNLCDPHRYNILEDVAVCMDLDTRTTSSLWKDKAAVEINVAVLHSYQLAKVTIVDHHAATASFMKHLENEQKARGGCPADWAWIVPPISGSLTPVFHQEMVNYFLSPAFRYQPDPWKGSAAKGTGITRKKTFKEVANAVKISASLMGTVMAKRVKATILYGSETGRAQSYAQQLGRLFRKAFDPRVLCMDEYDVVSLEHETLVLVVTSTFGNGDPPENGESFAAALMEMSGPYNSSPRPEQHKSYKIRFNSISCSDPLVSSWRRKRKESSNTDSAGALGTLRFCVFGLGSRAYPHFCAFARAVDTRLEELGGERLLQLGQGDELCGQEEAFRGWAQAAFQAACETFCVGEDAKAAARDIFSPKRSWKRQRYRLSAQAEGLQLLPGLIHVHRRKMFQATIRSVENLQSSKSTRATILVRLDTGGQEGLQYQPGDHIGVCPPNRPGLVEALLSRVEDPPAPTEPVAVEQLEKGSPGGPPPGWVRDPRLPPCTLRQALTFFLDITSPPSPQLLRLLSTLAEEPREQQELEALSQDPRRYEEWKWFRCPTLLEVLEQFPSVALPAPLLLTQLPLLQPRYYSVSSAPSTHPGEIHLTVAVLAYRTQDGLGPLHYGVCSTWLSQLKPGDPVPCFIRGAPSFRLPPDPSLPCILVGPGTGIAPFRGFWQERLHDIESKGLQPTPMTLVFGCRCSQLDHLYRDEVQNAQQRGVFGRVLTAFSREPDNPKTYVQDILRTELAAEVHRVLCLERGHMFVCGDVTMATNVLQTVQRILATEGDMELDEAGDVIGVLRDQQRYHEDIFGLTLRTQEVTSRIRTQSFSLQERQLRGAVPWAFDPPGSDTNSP
Nature of the assay: DAN assay, heNOS expressed in transiently transfected HEK293 cells. The assay is classed as cell-based. The conditions noted are these: HEK293 cells transiently transfected with heNOS. From the text: The source of nitric oxide synthase (NOS) enzyme can be generated in several ways including induction of endogenous iNOS using cytokines and/or lipopolysaccharide (LPS) in various cell types known in the art. Alternatively, the gene encoding the enzyme can be cloned and the enzyme can be generated in cells via heterologous expression from a transient or stable expression plasmid with suitable features for protein expression as are known in the art. Enzymatic activity (nitric oxide production) is calcium independent for iNOS, while the constitutive NOS isoforms, nNOS and eNOS, become active with the addition of various cofactors added to cellular media or extract as are well known in the art. Enzymes specified in Table 1 were expressed in HEK293 cells transiently transfected with the indicated NOS isoform.
A major metabolic pathway for nitric oxide is to nitrate and nitrite, which are stable metabolites within tissue culture, tissue, plasma, and urine (S Moncada, A Higgs, N Eng J Med 329, 2002 (1993)).
The level of nitrate or nitrite in the specimen can be quantified by any method known in the art which provides adequate sensitivity and reproducibility. A variety of protocols have also been described for detecting and quantifying nitrite and nitrate levels in biological fluids by ion chromatography (e.g., S A Everett et al., J. Chromatogr. 706, 437 (1995); J M Monaghan et al., J. Chromatogr. 770, 143 (1997)), high-performance liquid chromatography (e.g., M Kelm et al., Cardiovasc. Res. 41, 765 (1999)), and capillary electrophoresis (M A Friedberg et al., J. Chromatogr. 781, 491 (1997)). […] Using 2,3-diaminonaphthalene (“DAN”), researchers have developed a rapid, quantitative fluorometric assay that can detect from 10 nM to 10 μM nitrite and is compatible with a multi-well microplate format. […]
A specimen can be processed prior to determination of nitrate or nitrite as required by the quantification method, or in order to improve the results, or for the convenience of the investigator. […]

Another assay addresses T2, hiNOS (Homo sapiens, UniProt P35228).
T2 construct: expressed in transfected cells; host or cells: HEK293
Nature of the assay: DAN assay, hiNOS expressed in transiently transfected HEK293 cells. The assay is classed as cell-based. The conditions noted are these: HEK293 cells transiently transfected with hiNOS. Put shortly:
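Human iNOS, nNOS or eNOS transiently expressed in HEK293 cells, with nNOS and eNOS needing added cofactors for activity. NO production is read as nitrite by fluorometry: 2,3-diaminonaphthalene forms fluorescent […], detecting 10 nM to 10 μM nitrite.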

Broadly, the EC50 is the concentration needed to bring the measured effect to its halfway point. A lower EC50 goes with greater potency. As for `CN(CCCNCc1ccc2c(c1)OCO2)c1nc(-n2ccnc2)ns1` [Example 2, N′-Benzo[1,3]dioxol-5-ylmethyl-N-(3-imidazol-1-yl-[1,2,4]thiadiazol-5-yl)-N-methyl-propane-1,3-diamine], the EC50 was greater than 10 µM at heNOS and less than 1000 nM at hiNOS.
The corresponding values for `Cc1cc(C2CCCN2C(=O)NCCc2ccc3c(c2)OCO3)nc(-n2ccnc2)n1` (stereo not drawn) [Example 4, 2-(2-Imidazol-1-yl-6-methyl-pyrimidin-4-yl)-pyrrolidine-1-carboxylic acid (2-benzo[1,3]dioxol-5-yl-ethyl)-amide] are greater than 10 µM and less than 1000 nM.
For `Cc1cc(C2CCCN2C(=O)CNCc2ccc3c(c2)OCO3)nc(-n2ccnc2)n1` (stereo not drawn) [Example 5], in that order: greater than 10 µM and less than 1000 nM.
